Experimental data reported in US11235029B2, “Methods for treating heart failure with a TRKB agonist” (Temple University-Of The Commonwealth System of Higher …, priority 2017, dated 2022).

Assays:
[1] = test system: mice with myocardial infarction; test: chronic infusion of TrkB agonist in mice with myocardial infarction (echocardiography, fibrosis, heart rate); format: in vivo
Protocol: FIG. 7, comprising FIG. 7A through FIG. 7C, depicts experimental results. FIG. 7A depicts rescue of cardiac defects following MI resulting from chronic infusion of LM22A-4, a specific agonist of TrkB (Massa S M, et a. J Clin Invest. 2010; 120:1774-85) at 0.2 mg/kg/day in saline, started 1 week after MI. […] FIG. 7B depicts cardiac tissue sections and quantitation of fibrosis observed in sham, MI, and MI+LM22A-4 groups. Compared to the MI group without treatment, fibrosis was lower in TrkB agonist-treated hearts.
FIG. 7A depicts rescue of cardiac defects following FIG. 7A depicts rescue of cardiac defects following MI resulting from chronic infusion of LM22A-4, a specific agonist of TrkB (Massa S M, et al. J Clin Invest. 2010; 120:1774-85), at 0.2 mg/kg/day in saline, started 1 week after MI.
Overall fibrosis was lower in TrkB agonist-treated hearts (FIG. 7B). FIG. 7B depicts cardiac tissue sections and quantitation of fibrosis observed in sham, MI, and MI+LM22A-4 groups. Compared to the MI group without treatment, fibrosis was lower in TrkB agonist-treated hearts.

eNOS = test: immunoblot of eNOS phosphorylated at serine 1177 in myocytes; format: cell-based; conditions: acute infusion, 100 nM
Excerpt: FIG. 8 depicts an immunoblot of eNOS phosphorylated at serine 1177 (^ser1177p-eNOS) and total eNOS (t-eNOS), taken from myocytes under control conditions (NS) and treated with LM22A-4.
Another possible mechanism of protection granted by TrkB stimulation is eNOS stimulation. […] Thus, it is plausible that TrkB agonists enhance eNOS signaling. FIG. 8 depicts an immunoblot of eNOS phosphorylated at serine 1177 (^ser1177p-eNOS) and total eNOS (t-eNOS), taken from myocytes under control conditions (NS) and treated with LM22A-4.

BDNF = BDNF immunoblot of lysates from isolated control myocytes; format: cell-based
[2] = 0.2 mg/kg/day in saline, chronic infusion started 1 week after MI, 4 weeks after severe MI

`O=C(NCCO)c1cc(C(=O)NCCO)cc(C(=O)NCCO)c1` [LM22A-4, N,N′,N″-tris(2-hydroxyethyl)-1,3,5-benzenetricarboxamide] was tested, and the LVDs [1, 2] was 6.1±0.25 mm, the “ejection fraction (% EF)” value [1, 2] was 23.3±2.1% and the “fibrosis compared to the MI group without treatment” value ([1]; cardiac tissue sections, MI+LM22A-4 group) was “lower”. The heart rate ([1]; chronic infusion, MI mice) was 494±17.8 bpm, the “eNOS activation by phosphorylation at serine 1177” value (eNOS) was “activates eNOS” and the “myocardial BDNF (immunoblot)” value (BDNF) was “induced myocardial BDNF”.
